Several values for one entry are separate records, joined by “and”; a condition that tells them apart may be missing. Identical values can stand only once.
Experiments:
Type in all cases: functional
[1] = Antifungal activity against Bipolaris oryzae was measured as mycelial growth at 0.1 mg/mL concentration
[2] = Antifungal activity against Bipolaris oryzae was measured as mycelial growth at 0.5 mg/mL concentration
Curvularia lunata [3] = experiment: Antifungal activity against Curvularia lunata was measured as mycelial growth at 0.1 mg/mL concentration
Curvularia lunata [4] = experiment: Antifungal activity against Curvularia lunata was measured as mycelial growth at 0.5 mg/mL concentration
Fusarium oxysporum [5] = experiment: Antifungal activity against Fusarium oxysporum was measured as mycelial growth at 0.1 mg/mL concentration
[6] = Antibacterial activity against Escherichia coli was measured as area of inhibition zone at 0.1 mg/mL concentration
Enterococcus faecalis [7] = experiment: Antibacterial activity against […] was measured as area of inhibition zone at 0.1 mg/mL concentration
Staphylococcus aureus [8] = experiment: Antibacterial activity against Staphylococcus aureus was measured as area of inhibition zone at 0.1 mg/mL concentration; conditions: for zone of inhibition at 100 µg/mL: Staphylococcus aureus
Pseudomonas aeruginosa [9] = experiment: Antibacterial activity against Pseudomonas aeruginosa was measured as area of inhibition zone at 0.1 mg/mL concentration; conditions: for zone of inhibition at 100 µg/mL: Pseudomonas aeruginosa
Fusarium oxysporum [10] = experiment: Antifungal activity against Fusarium oxysporum was measured as mycelial growth at 0.5 mg/mL concentration
Thanatephorus cucumeris [11] = experiment: Antifungal activity against Rhizoctonia solani was measured as mycelial growth at 0.1 mg/mL concentration
Thanatephorus cucumeris [12] = experiment: Antifungal activity against Rhizoctonia solani was measured as mycelial growth at 0.5 mg/mL concentration
Alternaria alternata [13] = experiment: Antifungal activity against Alternaria alternata was measured as mycelial growth at 0.1 mg/mL concentration
Alternaria alternata [14] = experiment: Antifungal activity against Alternaria alternata was measured as mycelial growth at 0.5 mg/mL concentration
[15] = Antifungal activity against Bipolaris oryzae was determined at 0.1 mg/mL concentration
[16] = Antifungal activity against Bipolaris oryzae was determined at 0.5 mg/mL concentration
Curvularia lunata [17] = experiment: Antifungal activity against Curvularia lunata was determined at 0.1 mg/mL concentration
Curvularia lunata [18] = experiment: Antifungal activity against Curvularia lunata was determined at 0.5 mg/mL concentration
Fusarium oxysporum [19] = experiment: Antifungal activity against Fusarium oxysporum was determined at 0.1 mg/mL concentration
Fusarium oxysporum [20] = experiment: Antifungal activity against Fusarium oxysporum was determined at 0.5 mg/mL concentration
Thanatephorus cucumeris [21] = experiment: Antifungal activity against Rhizoctonia solani was determined at 0.1 mg/mL concentration
Thanatephorus cucumeris [22] = experiment: Antifungal activity against Rhizoctonia solani was determined at 0.5 mg/mL concentration
Escherichia coli [23] = experiment: Antibacterial activity against Escherichia coli was determined at 0.1 mg/mL concentration
Escherichia coli [24] = experiment: Antibacterial activity against Escherichia coli was determined at 0.5 mg/mL concentration
Pseudomonas aeruginosa [25] = experiment: Antibacterial activity against Pseudomonas aeruginosa was determined at 0.1 mg/mL concentration
Enterococcus faecalis [26] = experiment: Antibacterial activity against […] was determined at 0.1 mg/mL concentration
Enterococcus faecalis [27] = experiment: Antibacterial activity against […] was determined at 0.5 mg/mL concentration
Staphylococcus aureus [28] = experiment: Antibacterial activity against Staphylococcus aureus was determined at 0.1 mg/mL concentration
Staphylococcus aureus [29] = experiment: Antibacterial activity against Staphylococcus aureus was determined at 0.5 mg/mL concentration
Pseudomonas aeruginosa [30] = experiment: Antibacterial activity against Pseudomonas aeruginosa was determined at 0.5 mg/mL concentration
Alternaria alternata [31] = experiment: Antifungal activity against Alternaria alternata was determined at 0.1 mg/mL concentration
Alternaria alternata [32] = experiment: Antifungal activity against Alternaria alternata was determined at 0.5 mg/mL concentration

SMILES	Mycelial growth [1] [cm]	Mycelial growth [2] [cm]	Mycelial growth (Curvularia lunata [3]) [cm]	Mycelial growth (Curvularia lunata [4]) [cm]	Mycelial growth (Fusarium oxysporum [5]) [cm]	zone of inhibition at 100 µg/mL (Enterococcus faecalis [7]) [mm]	Inhibition Zone (Staphylococcus aureus [8])	zone of inhibition at 100 µg/mL (Pseudomonas aeruginosa [9]) [mm]	Mycelial growth (Fusarium oxysporum [10]) [cm]	Mycelial growth (Thanatephorus cucumeris [11]) [cm]	Mycelial growth (Thanatephorus cucumeris [12]) [cm]	Mycelial growth (Alternaria alternata [13]) [cm]	Mycelial growth (Alternaria alternata [14]) [cm]	inhibition at 100 µg/mL [15] [%]	inhibition at 500 µg/mL [16] [%]	inhibition at 100 µg/mL (Curvularia lunata [17]) [%]	inhibition at 500 µg/mL (Curvularia lunata [18]) [%]	inhibition at 100 µg/mL (Fusarium oxysporum [19]) [%]	inhibition at 500 µg/mL (Fusarium oxysporum [20]) [%]	inhibition at 100 µg/mL (Thanatephorus cucumeris [21]) [%]	other results
CCOC(=O)c1cn(-c2ccc([N+](=O)[O-])cc2[N+](=O)[O-])nc1-c1ccccc1	5.6	4.4	5.6	3.8	5.3	74	7.6 cm and 3.6 cm	18	3	8	6.6	5.5	3.8	37.8	51.1	37.8	57.8	41.1	66.7	11.1	Inhibition Zone [6]: 4.3 cm and 7.2 cm; zone of inhibition at 100 µg/mL ([6]; Escherichia coli): 39 mm; Inhibition Zone (Pseudomonas aeruginosa [9]): 2.2 cm; inhibition at 500 µg/mL (Thanatephorus cucumeris [22]): 26.6%; inhibition at 100 µg/mL (Escherichia coli [23]): 43.3%; inhibition at 500 µg/mL (Escherichia coli [24]): 80%; inhibition at 100 µg/mL (Pseudomonas aeruginosa [25]): 20%; inhibition at 100 µg/mL (Enterococcus faecalis [26]): 47.8%; inhibition at 500 µg/mL (Enterococcus faecalis [27]): 82.2%; inhibition at 100 µg/mL (Staphylococcus aureus [28]): 40%; inhibition at 500 µg/mL (Staphylococcus aureus [29]): 84.4%; inhibition at 500 µg/mL (Pseudomonas aeruginosa [30]): 24.4%; inhibition at 100 µg/mL (Alternaria alternata [31]): 38.9%; inhibition at 500 µg/mL (Alternaria alternata [32]): 57.8%
CCOC(=O)c1cn(-c2ccc([N+](=O)[O-])cc2[N+](=O)[O-])nc1-c1ccccc1F	5.7	4.3	5	4	6	23	7.3 cm	0	5.3	9	8.2	4.2	3.4	36.7	52.2	44.4	55.6	33.3	41.1	0	zone of inhibition at 100 µg/mL (Staphylococcus aureus [8]): 42 mm; inhibition at 500 µg/mL (Thanatephorus cucumeris [22]): 8.9%; inhibition at 100 µg/mL (Escherichia coli [23]): 20%; inhibition at 500 µg/mL (Escherichia coli [24]): 56.7%; inhibition at 100 µg/mL (Pseudomonas aeruginosa [25]): 0%; inhibition at 100 µg/mL (Enterococcus faecalis [26]): 0%; inhibition at 500 µg/mL (Enterococcus faecalis [27]): 25.6%; inhibition at 100 µg/mL (Staphylococcus aureus [28]): 46.7%; inhibition at 500 µg/mL (Staphylococcus aureus [29]): 81.1%; inhibition at 500 µg/mL (Pseudomonas aeruginosa [30]): 0%; inhibition at 100 µg/mL (Alternaria alternata [31]): 53.3%; inhibition at 500 µg/mL (Alternaria alternata [32]): 62.2%
Cc1nn(-c2ccc([N+](=O)[O-])cc2[N+](=O)[O-])cc1C(=O)OCc1ccccc1	6	4.8	6.4	5.3	6.3	73	4.1 cm	17	4.3	7.9	6.5	5.2	4.2	33.3	46.7	28.9	41.1	30	52.2	12.2	zone of inhibition at 100 µg/mL (Staphylococcus aureus [8]): 71 mm; Inhibition Zone (Pseudomonas aeruginosa [9]): 2 cm; inhibition at 500 µg/mL (Thanatephorus cucumeris [22]): 27.8%; inhibition at 100 µg/mL (Escherichia coli [23]): 17.8%; inhibition at 500 µg/mL (Escherichia coli [24]): 54.4%; inhibition at 100 µg/mL (Pseudomonas aeruginosa [25]): 18.9%; inhibition at 100 µg/mL (Enterococcus faecalis [26]): 56.7%; inhibition at 500 µg/mL (Enterococcus faecalis [27]): 81.1%; inhibition at 100 µg/mL (Staphylococcus aureus [28]): 45.6%; inhibition at 500 µg/mL (Staphylococcus aureus [29]): 78.9%; inhibition at 500 µg/mL (Pseudomonas aeruginosa [30]): 22.2%; inhibition at 100 µg/mL (Alternaria alternata [31]): 42.2%; inhibition at 500 µg/mL (Alternaria alternata [32]): 53.3%
